The values that follow come from patent EP1262195A1, “VASOACTIVE AGENTS” (Takeda Chemical Industries, Ltd., priority 2000, dated 2001).

The target in assay [1] is T1, human GPR14-expressing CHO cell (Homo sapiens, UniProt Q9UKP6).
T1 construct: expressed in transfected cells
T1 sequence (Q9UKP6 1-389): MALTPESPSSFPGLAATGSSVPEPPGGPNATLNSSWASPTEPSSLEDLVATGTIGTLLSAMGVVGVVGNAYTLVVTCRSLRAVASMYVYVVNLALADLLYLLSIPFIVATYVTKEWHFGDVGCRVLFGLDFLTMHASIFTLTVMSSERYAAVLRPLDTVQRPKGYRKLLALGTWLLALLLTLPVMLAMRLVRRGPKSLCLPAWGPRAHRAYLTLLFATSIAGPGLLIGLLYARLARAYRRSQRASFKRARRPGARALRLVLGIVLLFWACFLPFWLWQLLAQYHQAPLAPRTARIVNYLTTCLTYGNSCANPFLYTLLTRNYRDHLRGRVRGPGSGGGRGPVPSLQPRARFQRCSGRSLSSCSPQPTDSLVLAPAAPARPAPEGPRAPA
Kind of assay: Change in intracellular calcium concentration in human GPR14-expressing CHO cells (FLIPR), antagonist activity assay. To be noted: 10µl of 10nM urotensin II added, Fluo3, FLIPR. The format is cell-based. How it is done: After the transformant E. coli DH5α/pcDNA3.1-hGPR14 prepared in Reference Example 2 was cultured, plasmid DNA for pcDNA3.1-hGPR1 was prepared by using Plasmid Midi Kit (Qiagen). The plasmid DNA was introduced into CHO dhfr cells using CellPhect Transfection Kit (Amersham Pharmacia Biotech) according to the protocol appended thereto. 10µg of DNA was co-precipitated with calcium phosphate to prepare a suspension which was then added to a 10cm petri dish on which 5 x 10^5 or 1 x 10^6 CHO dhfr^- cells had previously been inoculated 24 hours before then. Cells were cultured in a MEMα medium containing 10% fetal bovine serum for one day, subcultured, and cultured in a selection medium, a MEMα medium containing 0.4 mg/ml G418 (GIBCO BRL) and 10% dialysis fetal bovine serum. Colonies of transformed cells (CHO/hGPR14), which were human GPR14-expessing CHO cells growing in the selection medium, were selected.
GPR14-expressing CHO cells were inoculated on a 96-well plate at 1×10^4 cell/well, cultured for 48 hours, and then washed with 0.1ml of HBSS containing 20mM HEPES(pH7.4), 1% FCS and 1% penicillin-streptomycin (hereinafter referred to as "wash buffer"). Next, 100µl of another wash buffer containing 4µM Fluo3, 0.04% pluronic acid and 2.5mM probenicid (hereinafter referred to as "reaction buffer") was added thereto for reaction at 37°C for 1 hour. […]

Assay [2] deals with T2, human GPR14 (Homo sapiens, UniProt Q9UKP6).
T2 construct: expressed in transfected cells
T2 sequence (Q9UKP6 1-389): T1 sequence (Q9UKP6 1-389)
As to the kind of experiment: Inhibition of binding of [125I]-labeled human urotensin II to GPR14 using human GPR14-expressing CHO cell membrane fraction. The settings on record: concentration showing 50% inhibition of human GPR14 binding activity, 1nM [125I]-labeled human urotensin II, 25°C for 3 hours, read-out: Inhibitory concentration. On the procedure: To 1 x 10^8 CHO/GPR14 cells were added 10 ml of homogenate buffer (10 mM NaHCO3, 5 mM EDTA, 0.5 mM PMSF, 1µg/ml pepstatin, 4µg/ml E64, 20µg/ml leupeptin), and disrupted using Polytron (12,000 rpm, 1 minute). Cell debris solution was centrifuged at 1,000g for 15 minutes to obtain a supernatant. The supernatant was then […] (in Beckman type 30 rotor, 30,000 rpm, 1 hour), and the resultant precipitant was collected as human GPR14-expressing CHO cell fraction.
Isotope-labeled human urotensin II to be used in experiments for testing inhibition of binding was prepared as described below. 5 µg of human urotensin II (available from Peptide Institute, Inc.) was dissolved in 25µl of 0.4M sodium acetate (pH 5.6). […]
Human GPR14-expressing CHO cell fraction was diluted in a membrane diluting buffer (20mM phosphate buffer (pH7.3), 150mM NaCl, 5mM MgCl2,0.1% BSA, 0.05% CHAPS, 0.5mM PMSF, 0.1µg/ml Pepstatin, 20µg/ml Leupeptin, 4µg/ml E-64) to prepare a solution of cell membrane fraction (protein concentration:3µg/ml) for assay. […] Next, the filter was washed three times with membrane diluting buffer (0.2ml), added with 20µl of Microscinti 20 (Packard), and determined for radioactivity in Topcount (Packard). Specific-binding is calculated by subtracting non-specific binding from the total binding. […]

pIC50: −log10 of the molar value.

In the case of “1-benzyl-6-bromo-2,3-dihydro-1H-pyrrolo [2,3-b] quinoline-4-ylamine [Synthesis Example 1]”, in assay [1], the “urotensin II-induced increase in intracellular calcium concentration” value is given as “inhibited”. With `Nc1c2c(nc3ccc(Br)cc13)N(Cc1ccccc1)CC2` [compound 2], in assay [2], the pIC50 was 8.62. Besides, in assay [1], the “urotensin II-induced increase in intracellular calcium concentration” value is given as “inhibited”. `Nc1c2c(nc3ccccc13)N(Cc1ccccc1)CC2` [compound 3]: the pIC50 in assay [2] was 7.48.
